Where two headings read alike, the source gives them in different places.
Tests used:
mouse RORγ = target: T1, mouse RORγ (Mus musculus, UniProt P51450); assay: Luciferase reporter gene assay of inhibitory effect against RORγ transcriptional activity (GAL4-mRORγ plasmid in CHO cells); type: cell-based
T1 construct: mouse, NM_011281.2 and from Ile251 to Lys516; expressed in transfected cells; host or cells: CHO cells (transient co-transfection with pG5-Luc reporter)
T1 sequence (P51450 251-516): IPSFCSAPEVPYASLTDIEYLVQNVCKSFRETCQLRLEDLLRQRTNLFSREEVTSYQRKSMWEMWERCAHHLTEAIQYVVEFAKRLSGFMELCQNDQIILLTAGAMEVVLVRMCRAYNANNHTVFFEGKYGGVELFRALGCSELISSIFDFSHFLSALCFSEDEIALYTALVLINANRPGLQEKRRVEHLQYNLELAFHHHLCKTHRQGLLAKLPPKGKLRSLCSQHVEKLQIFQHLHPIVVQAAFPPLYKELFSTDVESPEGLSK
Method in brief: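 Readout is intracellular luciferase after 2-day compound exposure (8 concentrations, 0.1% DMSO) in CHO cells expressing GAL4 fused to mouse RORγ LBD residues Ile251–Lys516 plus pG5-Luc reporter. EC50 fitted from %-of-control; points showing resazurin-detected cytotoxicity dropped.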

human RORγ = target: T2, human RORγ (Homo sapiens, UniProt P51449); assay: Luciferase reporter gene assay of inhibitory effect against RORγ transcriptional activity (GAL4-hRORγ plasmid in CHO cells); type: cell-based
T2 construct: human, NM_005060.3 and from Ser253 to Lys518; expressed in transfected cells; host or cells: CHO cells (transient co-transfection with pG5-Luc reporter)
T2 sequence (P51449 253-518): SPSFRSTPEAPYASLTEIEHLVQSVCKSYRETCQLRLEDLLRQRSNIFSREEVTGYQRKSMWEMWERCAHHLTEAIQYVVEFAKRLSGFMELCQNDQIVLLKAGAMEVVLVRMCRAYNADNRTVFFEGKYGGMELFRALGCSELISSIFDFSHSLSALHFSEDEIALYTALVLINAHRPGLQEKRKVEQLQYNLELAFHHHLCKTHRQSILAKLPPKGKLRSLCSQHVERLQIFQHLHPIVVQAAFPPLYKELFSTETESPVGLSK

Row | SMILES | EC50 (mouse RORγ; read-out: LUC EC50 (μM) mRORg) [µM] | EC50 (human RORγ; read-out: LUC EC50 (μM) hRORg) [µM] | other results
1 | Cc1ccc(NC(=O)C[C@H](CCC(=O)O)c2noc(-c3cc(C(F)(F)C4(C)CC4)on3)c2C2CC2)c(Cl)c1 [Example E-51] | < 3 | < 3 | 
2 | Cc1ccc(NC(=O)C[C@H](CCC(=O)O)c2onc(-c3cc(C(F)(F)C(C)(C)C)on3)c2C2CC2)c(Cl)c1 [Example E-52, Sodium (S)-5-(2-chloro-4-methyl-phenylcarbamoyl)-4-[4-cyclopropyl-5′-(1,1-difluoro-2,2-dimethylpropyl)-[3,3′]biisoxazolyl-5′-yl]pentanoate] | < 3 | < 3 | 
3 | Cc1ccc(NC(=O)C[C@H](CC(=O)O)c2noc(-c3cc(C(F)(F)C(C)(C)C)on3)c2C2CC2)c(Cl)c1 [Example E-53, Sodium (R)-4-(2-chloro-4-methyl-phenylcarbamoyl)-3-[4′-cyclopropyl-5-(1,1-difluoro-2,2-dimethylpropyl)-[3,5′]biisoxazolyl-3′-yl]-butyrate] | < 3 | < 3 | 
4 | Cc1ccc(NC(=O)C[C@H](CCC(=O)O)c2noc(-c3cc(C(C)(C)C(F)(F)F)on3)c2C2CC2)c(Cl)c1 [Example E-54] | < 3 | < 3 | 
5 | CC(C)C(F)(F)c1cc(-c2onc([C@@H](CCC(=O)O)CC(=O)Nc3ccc(Cl)cc3F)c2C2CC2)no1 [Example E-55] | < 3 | < 3 | 
6 | CC(C)(C)Cc1cc(-c2onc([C@@H](CCC(=O)O)CC(=O)Nc3ccc(Cl)cc3F)c2C2CC2)no1 [Example E-56] | < 3 | < 3 | 
7 | CC(C)(C)Cc1cc(-c2onc([C@@H](CCC(=O)O)CC(=O)Nc3ccc(F)cc3Cl)c2C2CC2)no1 [Example E-57] | < 3 | < 3 | 
8 | CC(C)(C)Cc1cc(-c2onc([C@@H](CCC(=O)O)CC(=O)Nc3ccc(Cl)cc3Cl)c2C2CC2)no1 [Example E-58, Sodium (S)-4-[4′-cyclopropyl-5-(2,2-dimethyl-propyl)-[3,5′]biisoxazolyl-3′-yl]-5-(2,4-dichloro-phenylcarbamoyl)-pentanoate] | < 3 | < 3 | 
9 | O=C(O)CC[C@@H](CC(=O)Nc1ccc(Cl)cc1F)c1noc(-c2cc(C3CCCC3)on2)c1C1CC1 [Example E-59] | < 3 | < 3 | 
10 | O=C(O)CC[C@@H](CC(=O)Nc1ccc(F)cc1Cl)c1noc(-c2cc(C3CCCC3)on2)c1C1CC1 [Example E-60] | < 3 | < 3 | 
11 | CC(C)C(F)(F)c1cc(-c2onc([C@@H](CCC(=O)O)CC(=O)Nc3ccc(F)cc3Cl)c2C2CC2)no1 [Example E-61] | < 3 | < 3 | 
12 | CC(C)(C)C(F)(F)c1cc(-c2onc([C@@H](CCC(=O)O)CC(=O)Nc3ccc(Cl)cc3F)c2C(F)F)no1 [Example E-62, Sodium (S)-5-(4-chloro-2-fluoro-phenylcarbamoyl)-4-[5-(1,1-difluoro-2,2-dimethylpropyl)-4′-difluoromethyl-[3,5′]biisoxazolyl-3′-yl]-pentanoate] | < 3 | < 3 | 
13 | CC1(Cc2cc(-c3onc([C@@H](CCC(=O)O)CC(=O)Nc4ccc(F)cc4Cl)c3C3CC3)no2)CC1 [Example E-63] | < 3 | < 3 | 
14 | CC1(Cc2cc(-c3onc([C@@H](CCC(=O)O)CC(=O)Nc4ccc(Cl)cc4F)c3C3CC3)no2)CC1 [Example E-64] | < 3 | < 3 | 
15 | Cc1ccc(NC(=O)C[C@H](CCC(=O)O)c2noc(-c3cc(CC(C)(C)C)on3)c2C2CC2)c(F)c1 [Example E-65] | < 3 | < 3 | 
16 | CC(F)(F)c1c([C@@H](CCC(=O)O)CC(=O)Nc2ccc(Cl)cc2F)noc1-c1cc(C(F)(F)C(C)(C)C)on1 [Example E-66] | < 3 | < 3 | 
17 | CC1(C(F)(F)c2cc(-c3onc([C@@H](CCC(=O)O)CC(=O)Nc4ccc(Cl)cc4F)c3C3CC3)no2)CC1 [Example E-67] | < 3 | < 3 | 
18 | CC(C)(C)c1cc(-c2onc([C@@H](CCC(=O)O)CC(=O)Nc3ccc(Cl)cc3F)c2C2CC2)no1 [Example E-69] | < 3 | < 3 | 
19 | O=C(O)CC[C@@H](CC(=O)Nc1ccc(Cl)cc1Cl)c1noc(-c2cc(C3CCCC3)on2)c1C1CC1 [Example E-70] | < 3 | < 3 | 
20 | CC1(c2cc(-c3onc([C@@H](CCC(=O)O)CC(=O)Nc4ccc(Cl)cc4F)c3C3CC3)no2)CCCC1 [Example E-71] | < 3 | < 3 | 

Row | SMILES | EC50 (mouse RORγ; read-out: LUC EC50 (μM) mRORg) [µM] | EC50 (human RORγ; read-out: LUC EC50 (μM) hRORg) [µM] | other results
21 | CC1(c2cc(-c3onc([C@@H](CCC(=O)O)CC(=O)Nc4ccc(F)cc4Cl)c3C3CC3)no2)CCCC1 [Example E-72] | < 3 | < 3 | 
22 | Cc1ccc(NC(=O)C[C@H](CCC(=O)O)c2noc(-c3cc(C(F)(F)C4CC4)on3)c2C2CC2)c(Cl)c1 [Example E-73] | < 3 | < 3 | 
23 | CC(C)(C)Cc1cc(-c2noc([C@@H](CCC(=O)O)CC(=O)Nc3ccc(Cl)cc3Cl)c2C2CC2)no1 [Example E-74] | < 3 | < 3 | 
24 | Cc1ccc(NC(=O)C[C@H](CCC(=O)O)c2onc(-c3cc(CC(C)(C)C)on3)c2C2CC2)c(Cl)c1 [Example E-75] | < 3 | < 3 | 
25 | CC(C)(C)Cc1cc(-c2noc([C@@H](CCC(=O)O)CC(=O)Nc3ccc(Cl)cc3F)c2C2CC2)no1 [Example E-76] | < 3 | < 3 | 
26 | CC(C)(C)C(F)(F)c1cc(-c2onc([C@@H](CCC(=O)O)CC(=O)Nc3ccc(Cl)cc3F)c2C2CC2)no1 [Example E-77] |  |  | EC50 (mouse RORγ; read-out: LUC EC50 mRORg): < 3 µM; EC50 (human RORγ; read-out: LUC EC50 hRORg): < 3 µM
27 | CC(C)(C)Cc1cc(-c2onc([C@@H](CCC(=O)O)CC(=O)Nc3ccc(Cl)cc3Cl)c2C2CC2)no1 [Example E-78] |  |  | EC50 (mouse RORγ; read-out: LUC EC50 mRORg): < 3 µM; EC50 (human RORγ; read-out: LUC EC50 hRORg): < 3 µM
28 | CC(C)(C)Cc1cc(-c2onc([C@H](CCC(=O)O)CC(=O)Nc3ccc(Cl)cc3Cl)c2C2CC2)no1 [Example E-79] |  |  | EC50 (mouse RORγ; read-out: LUC EC50 mRORg): < 3 µM; EC50 (human RORγ; read-out: LUC EC50 hRORg): < 3 µM
29 | CC(C)(C)C(F)(F)c1cc(-c2onc([C@H](CCC(=O)O)CC(=O)Nc3ccc(Cl)cc3F)c2C2CC2)no1 [Example E-80] |  |  | EC50 (mouse RORγ; read-out: LUC EC50 mRORg): < 3 µM; EC50 (human RORγ; read-out: LUC EC50 hRORg): < 3 µM
30 | CCn1c(CCC(=O)Nc2cccc3ccccc23)nnc1C1Cc2ccccc2C1 [Example F-1] | < 3 | < 3 | 
31 | CCn1c(C2Cc3ccccc3C2)nnc1[C@H](C)CC(=O)Nc1cccc2ccccc12 [Example F-2] | < 3 | < 3 | 
32 | CCn1c(CCC(=O)Nc2cccc(Cl)c2C)nnc1C1Cc2ccccc2C1 [Example F-3] | < 3 | > 3 | 
33 | O=C(CCc1nnc(C2Cc3ccccc3C2)n1C1CC1)Nc1cccc2ccccc12 [Example F-4] | < 3 | < 3 | 
34 | CCCn1c(CCC(=O)Nc2cccc3ccccc23)nnc1C1Cc2ccccc2C1 [Example F-5] | > 3 | > 3 | 
35 | CC(C)n1c(CCC(=O)Nc2cccc3ccccc23)nnc1C1Cc2ccccc2C1 [Example F-6] | > 3 | > 3 | 
36 | CCn1c(CCC(=O)Nc2cccc3c2CCCC3)nnc1C1Cc2ccccc2C1 [Example F-7] | < 3 | > 3 | 
37 | Cn1c(CCC(=O)Nc2cccc3ccccc23)nnc1C1Cc2ccccc2C1 [Example F-8] | < 3 | > 3 | 
38 | O=C(CCc1nnc(C2Cc3ccccc3C2)[nH]1)Nc1cccc2ccccc12 [Example F-9] | > 3 | > 3 | 
39 | CCn1c(CCC(=O)NC2CCCc3ccccc32)nnc1C1Cc2ccccc2C1 (centres unmarked) [Example F-10] |  |  | EC50 (mouse RORγ; LUC EC50 (μM) mRORg): > 3 µM; EC50 (human RORγ; LUC EC50 (μM) hRORg): > 3 µM
40 | CC(C)Cn1c(CCC(=O)Nc2cccc3ccccc23)nnc1C1Cc2ccccc2C1 [Example F-11] |  |  | EC50 (mouse RORγ; LUC EC50 (μM) mRORg): > 3 µM; EC50 (human RORγ; LUC EC50 (μM) hRORg): > 3 µM
